Article PMC9010763 (The Journal of Biological Chemistry, 2022)
Like-named read-outs stand apart in the source and are kept apart here. One block for each molecule: values may come before it.

Legend:
Type in all cases: biochemical
[1] = target: T1, SLC35B1 (Homo sapiens, UniProt P78383); test: [α^[…]]ATP uptake competition and counter-exchange, purified protein in PC-liposomes
T1 construct: isoform 1, C-terminal GFP fusion (hSLC35B1-GFP)
T1 sequence (P78383 1-322): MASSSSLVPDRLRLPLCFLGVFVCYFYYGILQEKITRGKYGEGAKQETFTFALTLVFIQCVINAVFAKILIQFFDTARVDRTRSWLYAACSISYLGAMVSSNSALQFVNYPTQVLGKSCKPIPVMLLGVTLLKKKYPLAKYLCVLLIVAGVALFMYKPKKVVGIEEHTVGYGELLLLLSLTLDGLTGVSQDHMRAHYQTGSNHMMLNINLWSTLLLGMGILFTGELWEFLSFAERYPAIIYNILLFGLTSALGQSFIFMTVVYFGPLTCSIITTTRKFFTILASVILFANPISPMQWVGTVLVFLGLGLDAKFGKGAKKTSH

[2] = target: T1, SLC35B1; test: inhibition of [α^[…]]ATP uptake at […], purified protein in PC-liposomes; settings: read-out: % inhibition at 1 mM
[3] = target: T1, SLC35B1; test: inhibition of [α^[…]]ATP uptake at […]; counter-exchange and efflux, purified protein in PC-liposomes; settings: read-out: % inhibition at 1 mM
[4] = target: T1, SLC35B1; test: inhibition of [α^[…]]ATP uptake at […]; counter-exchange, purified protein in PC-liposomes; settings: read-out: % inhibition at 1 mM

Ki ([1]; read-out: Ki): 56.1 µM
Compound: Nc1ncnc2c1ncn2[C@@H]1O[C@H](COP(=O)(O)OP(=O)(O)O)[C@@H](O)[C@H]1O [ADP]

Compound: Nc1ncnc2c1ncn2[C@@H]1O[C@H](COP(=O)(O)OP(=O)(O)OP(O)(O)=S)[C@@H](O)[C@H]1O [ATPɣ[-S]]
inhibition at 1000 µM [2]: > 85%

inhibition at 1000 µM [3]: 50 to 60%
Compound: Nc1ccn([C@@H]2O[C@H](COP(=O)(O)OP(=O)(O)OP(=O)(O)O)[C@@H](O)[C@H]2O)c(=O)n1 [CTP]

inhibition at 1000 µM [3]: 50 to 60%
Compound: Nc1nc2c(ncn2[C@@H]2O[C@H](COP(=O)(O)OP(=O)(O)O)[C@@H](O)[C@H]2O)c(=O)[nH]1 [GDP]

Ki ([1]; read-out: Ki): 275 µM
Compound: Nc1nc2c(ncn2[C@@H]2O[C@H](COP(=O)(O)OP(=O)(O)OP(=O)(O)O)[C@@H](O)[C@H]2O)c(=O)[nH]1 [GTP]

Compound: O=c1ccn([C@@H]2O[C@H](COP(=O)(O)OP(=O)(O)O)[C@@H](O)[C@H]2O)c(=O)[nH]1 [UDP]
Ki [1]: 83 µM

inhibition at 1000 µM [3]: 70 to 85%
Compound: O=c1ccn([C@@H]2O[C@H](COP(=O)(O)OP(=O)(O)OP(=O)(O)O)[C@@H](O)[C@H]2O)c(=O)[nH]1 [UTP]

inhibition at 1000 µM [4]: > 85%
Compound: Nc1ncnc2c1ncn2[C@H]1C[C@H](O)[C@@H](COP(=O)(O)OP(=O)(O)OP(=O)(O)O)O1 [dATP]
